Measurements reported in publication PMC7066271 (Clinical and Experimental Nephrology, 2020).
One block for each compound: values may come before it.

How the values were obtained:
human plasma protein = tested on: human plasma protein; set-up: method as in earlier work; conditions: cited from earlier work
healthy adult males [1] = test: Safety evaluation: adverse events in healthy adult males; type: in vivo, human; conditions: for Adverse events reported, all: by treatment period, causal relationship with study drugs ruled out; for Peritonsillar abscess, incidence / Peritonsillar abscess, number of events / Pharyngitis, incidence / Pharyngitis, number of events / Urine beta 2 microglobulin increased, incidence / Urine beta 2 microglobulin increased, number of events: healthy adult males, n = 12 for each drug alone, n = 11 for co-administration
Experimental: (§1) This was a single-center, open-label, two-period, sequential-group, add-on, drug–drug interaction study in healthy adult males conducted at a Japanese clinical pharmacology study center. Following a screening period ranging from 29 days before, to the day before the study drug administration (Day -1), eligible subjects were admitted to the study site on Day-1, received a single 4 mg oral dose of dotinurad in a fed state, and were discharged 48 h postdose. […] They underwent a follow-up examination between six and ten days after co-administration for safety evaluation.
Adverse events (AEs), a measure used for safety evaluation, were coded by preferred term using the Medical Dictionary for Regulatory Activities (MedDRA) version 20.1 (Japanese Maintenance Organization, Tokyo, Japan) and tabulated. The investigator observed/examined/assessed AEs, subjective symptoms and objective findings, vital signs, electrocardiography, and laboratory test values.
The safety analysis population included subjects who received at least one dose of dotinurad and who had data for safety evaluation.

[2] = Plasma oxaprozin concentrations before and 24 h after co-administration (steady-state check); type: in vivo; conditions: male, human, oral, 24 h after co-administration with dotinurad, n = 11
Experimental: A blood sample was drawn, in the amount of 5 mL at each time point except for 10 mL at 4 h after drug administration, into a heparin-containing blood collection tube and centrifuged at 3000 rpm for 10 min at 4 °C. A plasma sample obtained at each time point was then stored at – 20 °C before shipping in a chilled condition with dry ice to Sekisui Medical Co., Ltd. (Ibaraki, Japan) for determination of plasma drug concentrations.
(§2) Ultrafiltered plasma samples were used to determine unbound plasma concentrations of dotinurad by a validated LC–MS/MS method (LC:LC-20AD system, SHIMADZU. MS/MS: API4000, SCIEX). The LLOQ was 0.1 ng/mL.

[3] = Urinary excretion (fe) of dotinurad metabolites with and without oxaprozin in healthy adult males; type: in vivo, human
Experimental: as §1
After the pH of the urine sample collected after each time interval was adjusted to ≤ 7.0, the sample was stored at – 20 °C before shipping in a chilled condition with dry ice to Fuji Yakuhin Co., Ltd. (Saitama, Japan) for determination of urinary concentrations of dotinurad’s metabolites.
Urinary concentrations of metabolites (glucuronate conjugates and sulfate conjugates) were determined by a validated LC-MS/MS method (LC: Nexera X2 and Prominence, SHIMADZU. MS/MS: Triple Quad 4500, SCIEX). The LLOQ was 10 ng/mL for both metabolites.

[4] = tested on: organic anion transporter (OAT) 1; set-up: method as in PMID 31371478, PMID 31754883; conditions: compared to probenecid, benzbromarone, and lesinurad; cited from earlier work
[5] = tested on: ATP-binding cassette subfamily G member 2 (ABCG2); set-up: method as in PMID 31371478, PMID 31754883; conditions: compared to probenecid, benzbromarone, and lesinurad; cited from earlier work
[6] = tested on: CYPs, UGTs, sulfotransferases, and drug transporters; set-up: method as in earlier work; conditions: at clinical doses, several in vitro studies; cited from earlier work
[7] = Plasma pharmacokinetics of dotinurad, single 4 mg oral dose with and without oxaprozin, in healthy adult males; type: in vivo, human
Experimental: This was a single-center, open-label, two-period, sequential-group, add-on, drug-drug interaction study in healthy adult males conducted at a Japanese clinical pharmacology study center. Following a screening period ranging from 29 days before, to the day before the study drug administration (Day -1), eligible subjects were admitted to the study site on Day-1, received a single 4 mg oral dose of dotinurad in a fed state, and were discharged 48 h postdose. […] They underwent a follow-up examination between six and ten days after co-administration for safety evaluation. […] A blood sample was drawn, in the amount of 5 mL at each time point except for 10 mL at 4 h after drug administration, into a heparin-containing blood collection tube and centrifuged at 3000 rpm for 10 min at 4 °C. A plasma sample obtained at each time point was then stored at - 20 °C before shipping in a chilled condition with dry ice to Sekisui Medical Co., Ltd. (Ibaraki, Japan) for determination of plasma drug concentrations. […] Ultrafiltered plasma samples were used to determine unbound plasma concentrations of dotinurad by a validated LC-MS/MS method (LC:LC-20AD system, SHIMADZU. MS/MS: API4000, SCIEX). The LLOQ was 0.1 ng/mL.

OAT3 = tested on: OAT3; set-up: method as in PMID 31371478, PMID 31754883; conditions: compared to probenecid, benzbromarone, and lesinurad; cited from earlier work
healthy adult males [8] = test: Estimated glomerular filtration rate 24 h after dosing; type: in vivo, human
[9] = tested on: urate transporter 1 (URAT1); set-up: method as in PMID 31371478, PMID 31754883; conditions: cited from earlier work
[10] = Unbound fraction of dotinurad in plasma at the time of Cmax (ultrafiltered plasma, LC-MS/MS); type: in vivo, human
Experimental: as §2

[11] = [dotinurad and oxaprozin]/[dotinurad alone], n = 11
[12] = dotinurad 4 mg co-administered with oxaprozin 600 mg, fed, n = 11
[13] = dotinurad alone, single 4 mg oral dose, fed, n = 12
[14] = male, human, plasma, dotinurad alone, single 4 mg oral dose, fed, n = 12

- concentration at 24 h [2]: 102 ± 10.4 µg/mL
Compound: O=C(O)CCc1nc(-c2ccccc2)c(-c2ccccc2)o1 [Oxaprozin, oxaprozin, reference compound]
- Effect on plasma protein binding rate of dotinurad (human plasma protein; human plasma, ultrafiltration method): lower the plasma protein binding rate of dotinurad
- Adverse events reported, all (healthy adult males [1]): one event occurred in one subject
- Peritonsillar abscess, incidence (healthy adult males [1]): 8.3%
- Peritonsillar abscess, number of events (healthy adult males [1]): 1
- Pharyngitis, incidence (healthy adult males [1]): 0.0%
- Pharyngitis, number of events (healthy adult males [1]): 0
- Urine beta 2 microglobulin increased, incidence (healthy adult males [1]): 0.0%
- Urine beta 2 microglobulin increased, number of events (healthy adult males [1]): 0

- Estimated increase in dotinurad exposure when co-administered with oxaprozin ([3]; assuming absence of compensatory enhancement of other metabolic pathways): approximately 13%
- Proportion of glucuronidation inhibited by co-administered oxaprozin in terms of the entire metabolism of dotinurad ([3]; calculated from fe of glucuronate conjugates): 13.2%
- AUC0–inf, geometric mean ratio (90% CI) [7, 11]: 1.165 (1.114–1.219)
- CLtot/F, geometric mean ratio (90% CI) [7, 11]: 0.858 (0.820–0.898)
- Cmax, geometric mean ratio (90% CI) [7, 11]: 0.982 (0.945–1.021)
- T1/2, geometric mean ratio (90% CI) [7, 11]: 1.205 (1.176–1.236)
- Tmax, geometric mean ratio (90% CI) [7, 11]: 1.000 (0.844–1.185)
- Vd/F, geometric mean ratio (90% CI) [7, 11]: 1.035 (0.999–1.071)
- Increase in AUC0–inf of dotinurad ([7]; co-administration with oxaprozin compared with dotinurad alone): 16.5%
- AUC0–inf, mean [7, 12]: 4487 ng・h/mL
- CLtot/F, mean [7, 12]: 0.901 L/h
- AUC0–inf, mean [7, 13]: 3846 ng・h/mL
- CLtot/F, mean [7, 13]: 1.065 L/h
- Cmax [7, 14]: 0.271 µg/mL
- Tmax [7, 14]: 3.67 h
- Vd/F [7, 14]: 14.9 L
- half-life ([7]; male, human, plasma, dotinurad alone, single 4 mg oral dose, fed, n = 12, read-out: T1/2, mean (converted)): 9.85 h
- Estimated glomerular filtration rate (eGFR) (mean ± SD) (healthy adult males [8]; 24 h after administration of dotinurad alone, n = 12): 100.9 ± 13.0 mL/min/1.73 m^2
- Estimated glomerular filtration rate (eGFR) (mean ± SD) (healthy adult males [8]; 24 h after co-administration with oxaprozin, n = 11): 93.3 ± 13.0 mL/min/1.73 m^2
- Unbound fraction in plasma at Cmax, geometric mean ratio (90% CI) [10, 11]: 1.615 (1.454–1.794)
- fraction unbound ([10]; male, human, plasma, oral, dotinurad alone, 4 mg, n = 12): 0.00534
Compound: O=C(c1cc(Cl)c(O)c(Cl)c1)N1CS(=O)(=O)c2ccccc21 [Dotinurad, dotinurad]
- Effect on OAT1 [4]: minimal effect
- Effect on ABCG2 [5]: minimal effect
- Effect on CYPs, UGTs, sulfotransferases, and drug transporters [6]: no effects
- Effect on plasma protein binding rates of potentially co-administered drugs (human plasma protein; at clinical doses, in vitro): no effects
- Adverse events reported, all (healthy adult males [1]): Two events occurred in two subjects
- Peritonsillar abscess, incidence (healthy adult males [1]): 0.0%
- Peritonsillar abscess, number of events (healthy adult males [1]): 0
- Pharyngitis, incidence (healthy adult males [1]): 8.3%
- Pharyngitis, number of events (healthy adult males [1]): 1
- Urine beta 2 microglobulin increased, incidence (healthy adult males [1]): 8.3%
- Urine beta 2 microglobulin increased, number of events (healthy adult males [1]): 1
- Effect on OAT3 (OAT3): minimal effect
- URAT1 inhibition [9]: potent URAT1 inhibitor
